Results reported in patent US6710877B2, “Apparatus and methods for determining biomolecular interactions” (Corning Incorporated, priority 2001, dated 2004).
Like-named read-outs stand apart in the source and are kept apart here.

Legend:
Format in all cases: binding
anti-biotin = assay: Dual compartment absorbance sensor: leaching of ligand from agarose gel containing anti-biotin; conditions: anti-biotin instead of streptavidin, otherwise as Example 2
streptavidin [1] = biological target: T1, streptavidin (Streptomyces avidinii, UniProt P22629); assay: Three slot diffraction sensor: leaching of ligand out of the central sensing volume
T1 construct: purchased Sigma Corp., St. Louis, Mo; B3763
T1 sequence (P22629 25-183, species assumed): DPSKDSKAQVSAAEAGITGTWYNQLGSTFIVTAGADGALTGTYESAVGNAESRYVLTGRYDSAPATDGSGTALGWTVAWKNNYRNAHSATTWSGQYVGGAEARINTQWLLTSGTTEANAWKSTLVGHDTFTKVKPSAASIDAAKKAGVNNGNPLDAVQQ

streptavidin [2] = biological target: T1, streptavidin; assay: Dual compartment absorbance sensor: leaching of ligand from agarose gel containing streptavidin; conditions: for effective binding constant k from fit of equation 3 to concentration-time traces: 2.5% agarose gel, streptavidin, 8.4×10^−4 M ligand, 0.1×SSC buffer, 220 nm absorbance; for coefficient1 of fitting function f=coefficient1*Error_Function(coefficient2*time^1/2) / coefficient2 of fitting function f=coefficient1*Error_Function(coefficient2*time^1/2): average of traces, Marquardt-Levenberg fit

SMILES | binding affinities with anti-biotin in upstream compartment (FIGS. 7A and 7B) (anti-biotin) | leaching out of central sensing volume, peak-to-peak intensity difference versus time (FIG. 10) (streptavidin [1]) | effective binding constant k from fit of equation 3 to concentration-time traces (streptavidin [2]) [min⁻¹] | coefficient1 of fitting function f=coefficient1*Error_Function(coefficient2*time^1/2) (streptavidin [2]) [mM] | coefficient2 of fitting function f=coefficient1*Error_Function(coefficient2*time^1/2) (streptavidin [2]) | factor by which binding constant k of biotin exceeds that of glutamine (streptavidin [2]; biotin versus glutamine curve-fits) | leaching out of central sensing volume, peak-to-peak intensity difference versus time (FIG. 10) (streptavidin [1]; three samples each, 1×TBE buffer, qualitative)
O=C(O)CCCC[C@@H]1SC[C@@H]2NC(=O)N[C@@H]21 [biotin] | indistinguishable | more activity in the biotin traces | 0.01186 | ~1.5 | 0.1089 | 4 | 
NC(=O)CC[C@H](N)C(=O)O [glutamine] | indistinguishable |  | 0.00325 | ~1.6 | 0.0570 |  | much slower than biotin leaching
